Results on one compound are retold here after patent US10758541B2, “Formulations of milciclib and therapeutic combinations of the same for use in the treatment of cancer” (Tiziana Life Sciences PLC, priority 2017, dated 2020).

Experiment [1] concerns MHCC97H cells. Briefly: IC50 values by cell proliferation assay (WST-1). The class given is cell-based, human. As to conditions: Homo sapiens, MHCC97H, 72 h, individual inhibitor, 72 hours, WST-1; read-out: MHCC97H IC50. On the procedure: (§1) MHCC97H and MHCC97L (highly metastatic hepatocellular carcinoma cell line, derived from humans)
Cells (MHCC97H, MHCC97L, and HepG2.2.15) were cultured for 24 hours in 2% FBS and then were trypsinized, resuspended in 2% FBS and seeded in a rat collagen coated 96-well plate at a density of 10,000 cells/100 μl/well, a day before the experiment and cultured at 37° C. in 5% CO2. The cells were treated the next day with milciclib, sorafenib, regorafenib, sunitinib, and lenvatinib, individually or in combination in DMEM/F12+2% FBS+for 72 hours prior to the addition of WST-1 reagent. About 100 μL media was added to control well. […] To determine cell proliferation by the colorimetric test, 10 μL of WST-1 reagent (Sigma Aldrich, St Louis, Mo.) was added in 100 μL cell culture media and incubated for 2 hours in 5% CO2 at 37° C. At the end of incubation period, the plate was placed on a plate shaker for 1 minute and was monitored using a spectrophotometer at an optical density of 450 nm with a reference wavelength of 600 nm using Tecan F200 and iControl software. IC50 values were determined using GraphPad Prism (GraphPad Software, La Jolla, Calif.). Each experiment was performed in duplicate and repeated 2 times.
A general note: Tetrazolium dyes change colour on reduction, which living cells bring about.

For experiment [2], the system named is MHCC97L cells. Briefly: IC50 values by cell proliferation assay (WST-1). The class given is cell-based. As to conditions: Homo sapiens, individual inhibitor, 72 hours.
Text: (§2) See Shailubhai, K et al. “Atiprimod is an inhibitor of cancer cell proliferation and angiogenesis.” J Exp Ther Oncol. 2004; 4: 267-279; and Choudhari et al. “Deactivation of Akt and STAT3 signaling promotes apoptosis, inhibits proliferation, and enhances the sensitivity of hepatocellular carcinoma cells to an anticancer agent, atiprimod” Molecular Cancer Therapeutics. 2007; 6: 112-121. References are incorporated herein in their entireties.
as §1
(§3) Cells (MHCC97H, MHCC97L, and HepG2.2.15) were cultured for 24 hours in 2% FBS and then were trypsinized, resuspended in 2% FBS and seeded in a rat collagen coated 96-well plate at a density of 10,000 cells/100 μl/well, a day before the experiment and cultured at 37° C. in 5% CO2. The cells were treated the next day with milciclib, sorafenib, regorafenib, sunitinib, and lenvatinib, individually or in combination in DMEM/F12+2% FBS+for 72 hours prior to the addition of WST-1 reagent. About 100 μL media was added to control well. After cells had been cultured for 72 hours with different drug concentrations, cells were washed 3 times with sterile 1× Phosphate buffered saline (PBS). To determine cell proliferation by the colorimetric test, 10 μL of WST-1 reagent (Sigma Aldrich, St Louis, Mo.) was added in 100 μL cell culture media and incubated for 2 hours in 5% CO2 at 37° C. At the end of incubation period, the plate was placed on a plate shaker for 1 minute and was monitored using a spectrophotometer at an optical density of 450 nm with a reference wavelength of 600 nm using Tecan F200 and iControl software. IC50 values were determined using GraphPad Prism (GraphPad Software, La Jolla, Calif.). Each experiment was performed in duplicate and repeated 2 times.

Experiment [3] deals with MHCC97H cells. Briefly: EMT transwell invasion assay. The class given is cell-based, human. The settings on record: agent alone, 10 days, P<0.05. On the procedure: (§4) EMT (Epithelial to Mesenchymal Transition) induction employing kit from R&D systems (Cat # CCM017)
(§5) For transwell invasion assay HCC cells were seeded in the top chamber in 6 well transwell plates (Sigma-Aldrich, St. Louis, Mo.) at a density of 100,000 cells/500 μL/well in standard culture media containing 100× StemXVivo® EMT Inducing Media Supplement (R&D systems, Minneapolis, Minn.) and was incubated overnight at 37° C. in humidified CO2 incubator. Next day, EMT inducing media with or without the test articles was added and incubation was continued for 10 days with media changes every 3 days. On the 10th day, the number of cells migrated to the lower chamber was determined using Bio-Rad (Hercules, Calif.) automatic cell counter. Values obtained were expressed as a percentage of invasion and the cell counts of control cells were considered 100%.
(§6) The invasive potential of cancer cells is dependent on losing epithelial characteristics and acquiring a migratory mesenchymal property referred to as Epithelial to Mesenchymal Transition (EMT).

The subject of experiment [4] is MHCC97L cells. Briefly: EMT transwell invasion assay. The class given is cell-based, human. The settings on record: agent alone, 10 days, P<0.05. On the procedure: as §4, §5, §6
For experiment [5], the system named is pAKT (Ser473), AKT, c-Myc, Cyclin D1, PTEN. Briefly: Western blot analysis of tumor tissues. The class given is in vivo, mice. The settings on record: liver samples, vs vehicle treated group. On the procedure: The tumor tissues from a thymic nude mice were weighed and homogenized with RIPA lysis buffer (Sigma-Aldrich, St. Louis, Mo.) and protease inhibitor cocktail (Sigma-Aldrich, St. Louis, Mo.). Tumor lysates were cleared by centrifugation and the protein concentration was determined using Bradford reagent (Sigma-Aldrich, St. Louis, Mo.). Equal amounts of protein (30 μg) were resolved on precast polyacrylamide gels (Thermo Fisher Scientific, Rockford, Ill.) and transferred to nitrocellulose membrane, 0.2 μm pore size (Thermo Fisher Scientific, Rockford, Ill.). The blots were blocked with 5% (w/v) nonfat dry milk for 2 h at room temperature and then probed with primary antibody overnight at 4° C. The primary antibodies were directed against the following proteins: human PTEN, human AKT and phospho-AKT (Ser473), human c-Myc, human CyclinD1 and human β-actin (Cell Signaling Technology, Beverly, Mass.). After three washes, incubation was followed by the reaction with horseradish peroxidase-conjugated secondary antibody for 1 h at room temperature. The immunoreactive bands were visualized using Image Studio 4.0-Western Analysis Ribbon (Li-Cor, Lincoln, Nebr.).
In general terms: A western blot detects proteins with antibodies after separation by electrophoresis.

Experiment [6] has as its system HepG2.2.15 cells. Briefly: IC50 values by cell proliferation assay (WST-1). As to conditions: Homo sapiens, HepG2.2.15; individual inhibitor, 72 hours, WST-1; read-out: HepG2.2.15 IC50. The class given is cell-based.
Text: as §2
HepG2.2.15 cells are derived from the human hepatoblastoma cell line HepG2.
as §3

Each structure is given as a SMILES string.

On to `CNC(=O)c1nn(C)c2c1C(C)(C)Cc1cnc(Nc3ccc(N4CCN(C)CC4)cc3)nc1-2` [MILCICLIB, N,1,4,4-tetramethyl-8-((4-(4-methylpiperazin-1-yl)phenyl)amino)-4,5-dihydro-1H-pyrazolo[4,3-h]quinazoline-3-carboxamide], for which the IC50 (commonly the point on the concentration scale where inhibition reaches its midpoint) was determined as 1300 nM in experiment [1], 1000 nM in experiment [2] and 1160 nM in experiment [6]. For the same compound, the “cell migration (EMT assay)” value in experiment [3] and in experiment [4] was “statistically significant inhibition” in each case. In addition, the PTEN expression entry in experiment [5] is on record as “upregulation”. Also, the “pAKT, c-Myc and cyclin D1 expression” value in experiment [5] is “reduction”.
